Assay: The growth inhibitory concentration of compound was determined by logistic regression of viable cell number on Human leukemia 60 cells
Format: functional, 60 cell

Compound	GC50
CCCCOC(=O)CNC(=O)C(CSCc1ccc(Br)cc1)NC(=O)CCC(N)C(=O)OCCCC (configuration not stated)	18.5 µM
CC(C)OC(=O)CNC(=O)C(CSCc1ccc(Br)cc1)NC(=O)CCC(N)C(=O)OC(C)C (configuration not stated)	19.6 µM
NC(CCC(=O)NC(CSCc1ccc(Br)cc1)C(=O)NCC(=O)OC1CCCC1)C(=O)OC1CCCC1 (configuration not stated)	4.2 µM
CCCCCOC(=O)CNC(=O)C(CSCc1ccc(Br)cc1)NC(=O)CCC(N)C(=O)OCCCCC (configuration not stated)	22.2 µM
NC(CCC(=O)NC(CSCc1ccc(Br)cc1)C(=O)NCC(=O)OC1CCCCC1)C(=O)OC1CCCCC1 (configuration not stated)	29.2 µM
CCCOC(=O)CNC(=O)C(CSCc1ccc(Br)cc1)NC(=O)CCC(N)C(=O)OCCC (configuration not stated)	7.8 µM
CCOC(=O)CNC(=O)C(CSCc1ccc(Br)cc1)NC(=O)CCC(N)C(=O)OCC (configuration not stated)	8.3 µM
